# Columns and labels:
# [1] = tested on: patients afflicted with oral allergy syndrome; assay: Cromolyn Sodium mouth rinse in patients afflicted with oral allergy syndrome; type: in vivo
# Description: Using the teachings of the co-pending patent application entitled “PREPARATIONS FOR TOPICAL PREVENTION AND/OR TREATMENT OF ORAL […] SYMPTOMS DUE TO ORAL CONTACT WITH FRUITS AND/OR VEGETABLES”, filed Dec. […] These patients experienced much relief of their oral allergy and throat allergy symptoms. […] Thus, it seems that sometimes mouth rinsing of Cromolyn Sodium fails to deliver sufficient Cromolyn Sodium to the mast cells of the lip.
# [2] = when swallowed may include headache, GI upset, itchiness, irritability, rash, muscle pain; cited from earlier work
smiles,measurement,setting,value
O=C(O)c1cc(=O)c2c(OCC(O)COc3cccc4oc(C(=O)O)cc(=O)c34)cccc2o1 [Cromolyn Sodium],lip itchiness of internal and external lip surfaces after mouth rinse,[1],some individuals still experienced lip itchiness
same,relief of oral allergy and throat allergy symptoms,[1],much relief
same,side effects,[2],very uncommon
